Consider 86 compounds from PubChem BioAssay AID1320 (NMMLSC, 2008).

The source made the active and inactive calls. No rule for the calls is given here.

For one assay, the target named is Bcl-2-related protein A1 (Homo sapiens) (UniProt Q16548). Put plainly: inhibitors of Bim binding to Bfl-1, dose response, biochemical, multiplexed, bead-based flow cytometry (AID 1320). As to percent span (inhibition): test concentration not given here. Conditions: Bim peptide-Bfl-1 binding, fluorescence. (In general: In flow cytometry, cells or beads pass a laser one at a time.)
Sequence of Bcl-2-related protein A1 (Homo sapiens) (Q16548 whole entry, looked up): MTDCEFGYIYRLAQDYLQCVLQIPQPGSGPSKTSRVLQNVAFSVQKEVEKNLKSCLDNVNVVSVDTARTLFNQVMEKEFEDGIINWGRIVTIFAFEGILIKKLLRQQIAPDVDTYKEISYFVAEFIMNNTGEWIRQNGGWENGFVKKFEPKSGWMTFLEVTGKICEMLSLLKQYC
Consider `CC1CC2=C(NC(=S)NC2c2cccc(F)c2)/C(=C/c2cccc(F)c2)C1` (stereo unspecified), for which the EC50 result was “inactive”.

Staying with this assay, now noted: Bim peptide-Bfl-1 binding, fluorescence.
Take `COC(=O)Cc1cc(=O)[nH]c(Nc2nc3ccccc3o2)n1`: the “percent span (inhibition)” value is “inactive”.

On to `CCOc1ccc(C2=Nn3c(nnc3-c3ccco3)SC2)cc1`, for which the “percent span (inhibition)” value was “inactive”.

With `COc1ccc(OC)c(-n2c(=O)c3ccccc3c3ccccc3c2=O)c1`, the “percent span (inhibition)” value was “inactive”.

In the case of `O=C(COC(=O)CCCN=C1NS(=O)(=O)c2ccccc21)NC(=O)NC1CCCC1`, the “percent span (inhibition)” value was “inactive”.

On to `Cc1nc(NC(=O)CC(C)C)sc1-c1csc(Nc2ccc(Cl)cc2)n1`, for which the “percent span (inhibition)” value was “inactive”.

On to `O=c1c2c(n3nnnc3n1Cc1ccccc1)-c1ccccc1CC21CCCC1`, for which the “percent span (inhibition)” value was “inactive”.

As to `CS(=O)(=O)NN1C(=O)c2ccccc2NC1c1ccccc1` (stereo unspecified), the “percent span (inhibition)” value is “inactive”.

As to `CC(=O)c1ccc2c(c1)C1C=CCC1C(c1ccncc1)N2` (stereo unspecified), the “percent span (inhibition)” value was “inactive”.

As to `COC(=O)c1sc(NC(=O)c2ccc(Cn3cc(Cl)cn3)o2)c(C#N)c1C`, the “percent span (inhibition)” value is “inactive”.

In the case of `COc1ccc(OC)c(NC(=O)CCCN2C(=S)NC(C)(C)CC2C)c1` (stereo unspecified), the “percent span (inhibition)” value is “inactive”.

Turning to `CCOc1ccccc1NC(=O)CSc1nnc2ccc(-c3cccnc3)nn12`, the “percent span (inhibition)” value was “inactive”.

Take `O=C(O)C1=C[C@H](C2CC2)C[C@H](OCCCCO)O1`: the “percent span (inhibition)” value is “inactive”.

Consider `CCOc1ncccc1C(=O)OC(C)C(=O)Nc1ccc(CC)cc1` (stereo unspecified), for which the “percent span (inhibition)” value is “inactive”.

Turning to `Cc1ccc(N=Cc2c(O)n(-c3ccc4c(c3)OCO4)c(=O)c3ccccc23)cc1`, the “percent span (inhibition)” value is “inactive”.

`O=C(c1cc2ccccc2oc1=O)N(c1ccccc1)C1C=CS(=O)(=O)C1` (stereo unspecified): the “percent span (inhibition)” value was “inactive”.

With `O=C(OCC(=O)c1ccc[nH]1)c1ccccc1`, the “percent span (inhibition)” value was “inactive”.

As to `CCCCNC(=O)c1ccc2nc(-c3ccco3)c(-c3ccco3)nc2c1`, the “percent span (inhibition)” value is “inactive”.

As for `CCOC(=O)c1c2c3c(cccc3[nH]c1=O)C(=O)c1ccccc1-2`, the “percent span (inhibition)” value was “inactive”.

For the compound `CCN1CCN(c2cc(C)c3cc(NC(=S)N4CC(C)CC(C)C4)ccc3n2)CC1` (stereo unspecified), the “percent span (inhibition)” value was “inactive”.

Consider `CCN1CCN(c2cc(C)c3cc(NC(=S)N4CCN(c5ccccc5)CC4)ccc3n2)CC1`, for which the “percent span (inhibition)” value is “inactive”.

For `COC(=O)C1C2c3ccccc3OC1(C)N=c1s/c(=C/c3cnn(C)c3C)c(=O)n12` (stereo unspecified), the “percent span (inhibition)” value was “inactive”.

With `Cc1cc(C)n(CC(=O)N/N=C/c2cccc([N+](=O)[O-])c2)n1`, the “percent span (inhibition)” value was “inactive”.

With `COCCN=c1scc(-c2cccs2)n1/N=C/c1ccc(O)c(O)c1O`, the “percent span (inhibition)” value was “inactive”.

As to `S=C(Nc1ccc(N2CCOCC2)cc1)Nc1ccc2nc(-c3ccco3)c(-c3ccco3)nc2c1`, the “percent span (inhibition)” value was “inactive”.

Regarding `Cc1cc(-c2csc(N)n2)c(C)n1CCC(C)C`, the “percent span (inhibition)” value was “inactive”.

For the compound `CC1C=CCC2C(=O)N(c3ccc(OC(=O)c4cccs4)cc3)C(=O)C12` (stereo unspecified), the “percent span (inhibition)” value is “inactive”.

With `N#CC(C#N)=C1C=CC=CN1/C(=C\c1ccco1)C(=O)c1ccccc1`, the “percent span (inhibition)” value was “inactive”.

Take `Cn1c(=O)c2c(nc(NCCO)n2CCc2ccccc2)n(C)c1=O`: the “percent span (inhibition)” value is “inactive”.

Regarding `COc1ccc(NC(=O)C2=C(C)NC(=O)NC2c2cccc(OC)c2OC)c(OC)c1` (stereo unspecified), the “percent span (inhibition)” value is “inactive”.

As for `CN(/N=C/c1ccncc1)C1=NS(=O)(=O)c2ccccc21`, the “percent span (inhibition)” value was “inactive”.

Consider `O=C(O)CC1S/C(=N/N=C/C=C/c2ccccc2[N+](=O)[O-])NC1=O` (stereo unspecified), for which the “percent span (inhibition)” value is “inactive”.

As for `Cc1cc(C)c(C)c(S(=O)(=O)N2CCN(CC(=O)NC(=O)NCc3ccccc3)CC2)c1C`, the “percent span (inhibition)” value was “inactive”.

Consider `COc1ccccc1N(C)S(=O)(=O)c1ccc(C(=O)OCC(N)=O)cc1`, for which the “percent span (inhibition)” value is “inactive”.

Consider `Cc1ccc(NC2=C(Cl)C(=O)c3ccccc3C2=O)cc1`, for which the “percent span (inhibition)” value is “inactive”.

Turning to `O=C(CSc1nc2ccsc2c(=O)n1Cc1ccc(C(=O)O)cc1)NCC1CCCO1` (stereo unspecified), the “percent span (inhibition)” value was “inactive”.

For `COc1ccc(N2CC(C(=O)Nc3nnc(SCC(=O)c4ccccc4)s3)CC2=O)cc1` (stereo unspecified), the “percent span (inhibition)” value was “inactive”.

Turning to `Cc1ccnc(NS(=O)(=O)c2ccc(NS(=O)(=O)c3cccs3)cc2)n1`, the “percent span (inhibition)” value was “inactive”.

Turning to `CNC(=O)CC1C(=O)N(Cc2ccccc2)C(=S)N1NC(=O)c1cccc(F)c1` (stereo unspecified), the “percent span (inhibition)” value was “inactive”.

Regarding `Cc1cc(OCc2cn3cccnc3n2)ccc1Cl`, the “percent span (inhibition)” value is “inactive”.

As for `COCCNC(=O)CN1CCC(NC(=O)Nc2ccccc2)CC1`, the “percent span (inhibition)” value is “inactive”.

As for `O=C1CCc2cc(S(=O)(=O)NCCCC(=O)N3CCN(Cc4ccc5c(c4)OCO5)CC3)ccc2N1`, the “percent span (inhibition)” value was “inactive”.

For the compound `COc1ccc(OC)c(Nc2ccc(C(=O)O)cc2[N+](=O)[O-])c1`, the “percent span (inhibition)” value is “inactive”.

For the compound `COc1ccc(-c2noc(COc3ccc4c(c3)OCO4)n2)cc1OC`, the “percent span (inhibition)” value was “inactive”.

As for `O=C(Cc1ccccc1)N/N=C/c1cccn1-c1ccc([N+](=O)[O-])cc1`, the “percent span (inhibition)” value was “inactive”.

For `Cc1ccc2c(C)c(C(=O)Nc3nnc(C)s3)oc2c1`, the “percent span (inhibition)” value is “inactive”.

For the compound `Cc1ccc(-c2cc(C(=O)N3CCN(c4ncccn4)CC3)c3cc(Br)ccc3n2)o1`, the “percent span (inhibition)” value is “inactive”.

For the compound `CCCCOc1ccc(Cc2c(Cl)nc(SC)nc2N2CCOCC2)cc1`, the “percent span (inhibition)” value was “inactive”.

For `CC1Cc2ccccc2N1C(=O)c1ccc(N2CCCC2)c([N+](=O)[O-])c1` (stereo unspecified), the “percent span (inhibition)” value is “inactive”.

Turning to `COc1ccc(CN(C)CC(=O)NC(C)c2ccccc2)c(OC)c1` (stereo unspecified), the “percent span (inhibition)” value was “inactive”.

Regarding `COc1ccc(N2C(=O)C(Cl)=C(Nc3ccccc3O)C2=O)cc1`, the “percent span (inhibition)” value is “inactive”.

As for `O=C(Nc1ccncc1)c1cc2ccccc2o1`, the “percent span (inhibition)” value is “inactive”.

Regarding `COc1c(C)cc(Br)cc1C(=O)Nc1ccc(S(N)(=O)=O)cc1`, the “percent span (inhibition)” value is “inactive”.

Regarding `Cc1ccc(Nc2nc(CSc3nnc(-c4cccnc4)n3-c3ccccc3C)cs2)cc1`, the “percent span (inhibition)” value was “inactive”.

On to `Cc1nc(=S)c2ccccc2[nH]1`, for which the “percent span (inhibition)” value is “inactive”.

As to `CCOC(=O)c1ccc(Nc2nc(C(=O)OCC)nc3ccccc23)cc1`, the “percent span (inhibition)” value was “inactive”.

On to `CCOc1cc(/C=N/NC(=O)c2cccs2)cc([N+](=O)[O-])c1O`, for which the “percent span (inhibition)” value was “inactive”.

With `CC(C)n1nnnc1SCC(=O)N1CCN(C(=O)c2ccco2)CC1`, the “percent span (inhibition)” value was “inactive”.

For `CCCCN(C(=O)CCC(=O)Nc1cc(C)on1)C(C(=O)NC(C)(C)C)c1cccc(OC)c1OC` (stereo unspecified), the “percent span (inhibition)” value was “inactive”.

Regarding `Cn1c(N)c(C(=O)COC(=O)c2cc(-c3ccco3)nc3ccccc23)c(=O)n(Cc2ccccc2)c1=O`, the “percent span (inhibition)” value was “inactive”.

With `COc1ccc(N2CCN(C(=O)c3cc(=O)[nH]c4ccccc34)CC2)cc1`, the “percent span (inhibition)” value was “inactive”.

In the case of `Cc1nonc1NC(=O)CSc1nnc(-c2ccoc2C)n1C`, the “percent span (inhibition)” value was “inactive”.

As to `CCNC(=S)Nc1ccc(OCC)cc1`, the “percent span (inhibition)” value is “inactive”.

On to `CCOc1cc(CNc2ccc(N3CCCCC3)cc2)cc(Br)c1OCC(=O)NC(C)(C)C`, for which the “percent span (inhibition)” value was “inactive”.

`Cc1cccc(NC(=S)N2CCn3cccc3C2c2cccnc2)c1` (stereo unspecified): the “percent span (inhibition)” value was “inactive”.

`COCCCn1c(N)c(C(=O)Nc2sc3c(c2C(=O)OC)CCCC3)c2nc3ccccc3nc21`: the “percent span (inhibition)” value was “inactive”.

Take `CCn1c(SCC(=O)Nc2ccc(C)cc2)nnc1-c1ccc(O)cc1`: the “percent span (inhibition)” value is “inactive”.

As for `Cc1occc1C(=O)NNC(=S)NCc1ccccc1`, the “percent span (inhibition)” value was “inactive”.

Take `Cn1c(=O)[nH]c(=O)c2c1nc(N1CCOCC1)n2CCSc1nc2ccccc2[nH]1`: the “percent span (inhibition)” value was “inactive”.

Take `COc1cc(/C=N/Nc2nc3c(c(=O)n(C)c(=O)n3C)n2Cc2ccccc2)ccc1OC(=O)c1ccco1`: the “percent span (inhibition)” value is “inactive”.

`CCOC(=O)c1nc(Nc2ccc(C(=O)OC)cc2)c2ccccc2n1`: the “percent span (inhibition)” value is “inactive”.

Consider `S=C1NC2=C(CCC/C2=C\c2ccccc2)C(c2ccccc2)N1` (stereo unspecified), for which the “percent span (inhibition)” value is “inactive”.

Take `c1ccc(-c2nc(N3CCCCCC3)c3ccccc3n2)nc1`: the “percent span (inhibition)” value was “inactive”.

As to `C=CCN1C(=O)/C(=C/c2ccsc2)SC1=S`, the “percent span (inhibition)” value was “inactive”.

As for `O=C1c2ccccc2C(=O)N1c1cccc2cccnc12`, the “percent span (inhibition)” value was “inactive”.

Turning to `O=C(c1ccc(CNS(=O)(=O)c2ccc(Br)cc2)cc1)N1CCCC1`, the “percent span (inhibition)” value is “inactive”.

`CCc1ccc(NC(=O)CC2NCCNC2=O)cc1` (stereo unspecified): the “percent span (inhibition)” value was “inactive”.

Regarding `CCOC(=O)c1ccc(NC(=O)CSCCC(=O)O)cc1`, the “percent span (inhibition)” value was “inactive”.

Turning to `COc1cccc(C(=O)/C=C/Nc2ccc(S(=O)(=O)Nc3onc(C)c3C)cc2)c1`, the “percent span (inhibition)” value is “inactive”.

Turning to `CNC(=O)c1sc(-c2ccccn2)nc1C`, the “percent span (inhibition)” value was “inactive”.

Regarding `Oc1ccc(C=NCC2COc3ccccc3O2)cc1` (stereo unspecified), the “percent span (inhibition)” value was “inactive”.

With `O=C(CSc1ccc(-c2ccccc2)nn1)NCc1ccco1`, the “percent span (inhibition)” value was “inactive”.

Consider `CN1C2C=C3C(C#N)=C(N)C(C#N)(C#N)[C@@H](c4ccsc4)[C@@H]3C1CC2` (stereo partly specified), for which the “percent span (inhibition)” value was “inactive”.

In the case of `Cn1c(N)c(C(=O)COC(=O)c2cncc(Br)c2)c(=O)n(C)c1=O`, the “percent span (inhibition)” value was “inactive”.

With `Cc1sc(NC(=O)Cn2cnnn2)nc1-c1ccc(Cl)cc1`, the “percent span (inhibition)” value was “inactive”.

`Cc1ccc(SCCC(=O)Nc2ccc(Br)c(C)c2)cc1`: the “percent span (inhibition)” value is “inactive”.
